Results reported in patent publication US11654102B2, “Cosmetic composition comprising vetiver root extract” (GIVAUDAN SA, priority 2018, dated 2023).

Assay: Solubility of zizanoic acid in water
Format: physicochemical
Details: in presence of the other substances present in the extract

solubility of zizanoic acid in water: improved
SMILES: C=C1[C@H]2CC[C@H](C(=O)O)[C@@]23CC[C@H](C3)C1(C)C [zizanoic acid]
